Experimental data as given in patent publication US20150133456A1, “FLUOROERGOLINE DERIVATIVES AND USES THEREOF” (MAP PHARMACEUTICALS, INC., priority 2012, published 2015).
“Also recorded” adds a separate entry of the source.

Legend:
[1] = tested on: Opioid (OP1/OP2/OP3); assay: Opioid receptor GTPγS assays; type: biochemical, human
Description: (§1) Reagents used were the following: Assay buffer (20 mM HEPES, pH 7.4; 100 mM NaCl; 10 μg/mL saponin; 30 mM MgCl2); Membranes (recombinant human receptor membrane extracts were thawed on ice and diluted in assay buffer to give 1000 μg/mL ([…]) and kept on ice); GDP (diluted in assay buffer to give 30 μM solution (3 μM final concentration); beads (PVT-WGA (Amersham, RPNQ001), diluted in assay buffer at 25 mg/mL (0.25 mg/10 μL)); GTPγ^35S (Perkin Elmer, NEG030X), diluted in assay buffer to give 0.1 nM (final concentration); and ligand (agonist/antagonist diluted in assay buffer).
(§2) Membranes were mixed with GDP (1:1) and incubated for at least 15 minutes on ice. In parallel GTPγ^35S was mixed with the beads (1:1) just before starting the reaction. The following reagents were successively added in the wells of an Optiplate (Perkin Elmer): 50 μL test compound or reference ligand, 20 μL of the membranes:GDP mix (then 15 minute incubation for antagonist test), 10 μL of reference agonist at historical EC80 (for antagonist test) or 10 μL of assay buffer (for agonist test) and 20 μL of the GTPγ^35S:beads mix. […] The plates were then centrifuged for 10 minutes at 2000 rpm and incubated at room temperature for 1 hour and counted for 1 min/well with a Perkin Elmer TopCount reader.

[2] = target: human α2A receptor (Homo sapiens, UniProt P08913); assay: GTPγS antagonist assay, α2A; type: biochemical; settings: read-out: IC50, α2A antagonism
human α2A receptor, sequence (P08913 whole entry): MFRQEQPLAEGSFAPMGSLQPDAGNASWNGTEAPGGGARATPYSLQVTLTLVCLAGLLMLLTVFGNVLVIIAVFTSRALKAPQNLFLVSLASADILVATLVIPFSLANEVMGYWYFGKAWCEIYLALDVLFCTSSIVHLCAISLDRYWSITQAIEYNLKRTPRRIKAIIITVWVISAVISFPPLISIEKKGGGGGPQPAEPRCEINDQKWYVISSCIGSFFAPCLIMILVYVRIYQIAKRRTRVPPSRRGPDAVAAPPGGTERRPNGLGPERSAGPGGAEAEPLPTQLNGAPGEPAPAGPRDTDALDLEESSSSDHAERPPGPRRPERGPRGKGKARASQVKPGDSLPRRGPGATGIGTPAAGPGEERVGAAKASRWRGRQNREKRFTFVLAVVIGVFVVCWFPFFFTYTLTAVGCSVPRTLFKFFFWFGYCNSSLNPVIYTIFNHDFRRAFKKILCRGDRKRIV

[3] = tested on: VIP/PACAP (PAC1/VPAC1/VPAC2); assay: VIP/PACAP receptor Aequorin assays; type: cell-based, human
Description: (§3) CHO-K1 cells coexpressing mitochondrial apoaequorin and the recombinant human receptor of interest were grown to mid-log phase in culture media without antibiotics and then detached with PBS-EDTA, centrifuged and resuspended in assay buffer (DMEM/HAM's F12 with HEPES, without phenol red+0.1% BSA, protease free) at a concentration of 1×10^6 cell/mL. Cells were incubated at room temperature for at least 4 hours with coelenterazine h. Reference agonist/antagonist was tested to evaluate the performance of the assay and to determine EC50/IC50.
(§4) 50 μL of the cell suspension was mixed with 50 μL of test or reference agonist in a 96-well plate. […] For antagonist testing, 100 μL of the reference agonist at its EC80 was injected on the mix of cells and test compound, following an incubation of 15 minutes after the first injection. The resulting emission of light was r recorded using Hamamatsu Functional Drug Screening System 6000 (FDSS 6000) luminometer. To standardize the emission of recorded light (and determine of the “100% signal”) across plates and across different experiments, some wells contained 100 μM digitonin or a saturating concentration of ATP (20 μM).

[4] = target: T1, CCK2 (Homo sapiens, UniProt P32239); assay: Cholecystokinin receptor Aequorin assay; type: cell-based; settings: antagonism
T1 construct: expressed in transfected cells; host or cells: CHO-AEQ (CHO-K1 with mitochondrial apoaequorin)
T1 sequence (P32239 whole entry): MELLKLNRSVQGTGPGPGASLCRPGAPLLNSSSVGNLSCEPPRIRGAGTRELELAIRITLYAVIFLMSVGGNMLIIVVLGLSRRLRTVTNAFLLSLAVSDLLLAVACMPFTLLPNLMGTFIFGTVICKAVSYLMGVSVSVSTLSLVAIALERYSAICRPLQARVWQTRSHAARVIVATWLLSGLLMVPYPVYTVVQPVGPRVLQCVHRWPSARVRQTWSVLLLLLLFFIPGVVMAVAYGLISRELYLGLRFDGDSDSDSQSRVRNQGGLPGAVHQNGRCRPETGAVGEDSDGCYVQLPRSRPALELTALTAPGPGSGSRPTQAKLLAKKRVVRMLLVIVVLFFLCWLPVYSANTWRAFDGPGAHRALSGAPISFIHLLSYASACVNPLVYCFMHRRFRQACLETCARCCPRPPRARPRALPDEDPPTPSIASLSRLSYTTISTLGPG
Description: as §3, §4

[5] = target: T2, α1A receptor (Homo sapiens, UniProt P35348); assay: Competitive antagonist activity, adrenergic α1A; type: cell-based; settings: read-out: IC50, α1A antagonism
T2 construct: expressed in transfected cells
T2 sequence (P35348 whole entry): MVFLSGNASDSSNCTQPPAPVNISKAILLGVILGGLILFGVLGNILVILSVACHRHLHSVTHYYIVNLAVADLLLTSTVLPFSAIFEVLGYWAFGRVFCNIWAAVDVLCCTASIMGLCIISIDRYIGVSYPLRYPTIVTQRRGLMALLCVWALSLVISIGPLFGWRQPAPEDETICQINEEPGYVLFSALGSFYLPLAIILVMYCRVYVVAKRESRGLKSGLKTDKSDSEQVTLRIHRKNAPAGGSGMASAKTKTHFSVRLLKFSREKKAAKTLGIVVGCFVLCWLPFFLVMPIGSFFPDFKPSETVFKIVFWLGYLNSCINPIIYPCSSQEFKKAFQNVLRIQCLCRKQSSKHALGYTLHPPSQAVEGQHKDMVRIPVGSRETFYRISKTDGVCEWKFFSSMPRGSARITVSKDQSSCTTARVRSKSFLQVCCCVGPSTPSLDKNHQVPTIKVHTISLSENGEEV

[6] = target: T3, human 5-HT2B receptor (Homo sapiens, UniProt P41595); assay: Aequorin assay, agonist activity at 5-HT2B; type: cell-based; settings: 0.01 nM to 20,000 nM; versus Emax of α-methyl-5-HT
T3 construct: host or cells: CHO-K1 coexpressing mitochondrial apoaequorin
T3 sequence (P41595 whole entry): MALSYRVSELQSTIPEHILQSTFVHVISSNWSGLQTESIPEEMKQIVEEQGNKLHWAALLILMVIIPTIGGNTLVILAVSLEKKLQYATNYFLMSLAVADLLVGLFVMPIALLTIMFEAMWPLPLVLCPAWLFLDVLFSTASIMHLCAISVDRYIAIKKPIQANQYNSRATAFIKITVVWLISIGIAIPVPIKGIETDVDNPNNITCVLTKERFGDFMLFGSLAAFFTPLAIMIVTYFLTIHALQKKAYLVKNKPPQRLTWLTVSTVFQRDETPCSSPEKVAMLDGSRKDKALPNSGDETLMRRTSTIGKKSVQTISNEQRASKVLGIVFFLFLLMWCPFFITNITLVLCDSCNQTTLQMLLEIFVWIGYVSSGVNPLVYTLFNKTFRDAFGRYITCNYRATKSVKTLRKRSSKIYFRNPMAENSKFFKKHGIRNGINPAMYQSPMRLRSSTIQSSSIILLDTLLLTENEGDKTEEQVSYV
Description: Percentage activation values were determined for 2-CF3 dihydroergotamine at the 5-HT2B receptor.

[7] = target: T4, NK1 (Homo sapiens, UniProt P25103); assay: Neurokinin receptor Aequorin assay; type: cell-based; settings: antagonism
T4 construct: expressed in transfected cells; host or cells: CHO-AEQ (CHO-K1 with mitochondrial apoaequorin)
T4 sequence (P25103 whole entry): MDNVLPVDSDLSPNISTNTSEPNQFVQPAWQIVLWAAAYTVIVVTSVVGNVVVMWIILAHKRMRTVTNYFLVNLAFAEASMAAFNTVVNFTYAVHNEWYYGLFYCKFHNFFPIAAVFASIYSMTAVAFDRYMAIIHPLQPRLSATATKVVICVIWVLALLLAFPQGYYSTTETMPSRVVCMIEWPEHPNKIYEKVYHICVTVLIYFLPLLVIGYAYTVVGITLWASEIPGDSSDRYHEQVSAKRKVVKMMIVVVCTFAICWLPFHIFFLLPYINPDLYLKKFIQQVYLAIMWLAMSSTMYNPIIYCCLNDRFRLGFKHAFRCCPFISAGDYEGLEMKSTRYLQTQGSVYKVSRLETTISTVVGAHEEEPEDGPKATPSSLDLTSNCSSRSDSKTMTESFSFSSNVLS
Description: as §3, §4

[8] = tested on: Calcitonin (AM1/AM2); assay: Calcitonin (AM1/AM2) cAMP HTRF assays; type: cell-based, human
Description: Cells expressing the human recombinant receptor of interest were grown in media without antibiotic and detached by gentle flushing with PBS-EDTA (5 mM EDTA), recovered by centrifugation and resuspended in assay buffer (KRH: 5 mM KCl, 1.25 mM MgSO4, 124 mM NaCl, 25 mM HEPES, 13.3 mM glucose, 1.25 mM KH2PO4, 1.45 mM CaCl2, 0.5 g/L BSA). Dose response curves were performed in parallel with the reference compounds. For agonist tests (96-well plates), 12 μL of cells was mixed with 12 μL of the test compound at increasing concentrations and then incubated for 30 minutes at room temperature. Lysis buffer was added and after a 1 hour incubation, cAMP concentrations was determined according to the manufacturer specification with the HTRF kit. […] Lysis buffer was added and after a 1 hour incubation, cAMP concentrations were determined according to the manufacturer specification, with the HTRF kit.
Cells expressing the human recombinant receptor of interest were grown in media without antibiotic and detached by gentle flushing with PBS-EDTA (5 mM EDTA), recovered by centrifugation and resuspended in assay buffer (KRH: 5 mM KCl, 1.25 mM MgSO4, 124 mM NaCl, 25 mM HEPES, 13.3 mM glucose, 1.25 mM KH2PO4, 1.45 mM CaCl2, 0.5 g/L BSA). […] Lysis buffer was added and after a 1 hour incubation, cAMP concentrations was determined according to the manufacturer specification with the HTRF kit. […]

[9] = tested on: Somatostatin (SST1~SST5); assay: Somatostatin receptor GTPγS assays; type: biochemical, human
Description: as §1, §2

[10] = target: T5, OX1 (Homo sapiens, UniProt O43613); assay: Orexin receptor Aequorin assay; type: cell-based; settings: antagonism
T5 construct: expressed in transfected cells; host or cells: CHO-AEQ (CHO-K1 with mitochondrial apoaequorin)
T5 sequence (O43613 whole entry): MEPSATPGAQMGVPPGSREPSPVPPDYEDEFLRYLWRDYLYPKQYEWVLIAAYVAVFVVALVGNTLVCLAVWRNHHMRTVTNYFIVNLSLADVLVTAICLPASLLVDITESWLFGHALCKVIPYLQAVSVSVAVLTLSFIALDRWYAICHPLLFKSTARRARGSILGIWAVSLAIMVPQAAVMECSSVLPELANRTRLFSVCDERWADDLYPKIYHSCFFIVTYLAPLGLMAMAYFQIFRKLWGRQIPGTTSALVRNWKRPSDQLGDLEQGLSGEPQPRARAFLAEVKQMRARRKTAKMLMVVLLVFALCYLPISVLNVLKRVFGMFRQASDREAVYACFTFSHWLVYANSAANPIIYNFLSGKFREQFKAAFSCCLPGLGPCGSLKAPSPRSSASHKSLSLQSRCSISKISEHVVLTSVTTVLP
Description: as §3, §4

[11] = target: human α2C receptor (Homo sapiens, UniProt P18825); assay: GTPγS antagonist assay, α2C; type: biochemical; settings: read-out: IC50, α2C antagonism
human α2C receptor, sequence (P18825 whole entry): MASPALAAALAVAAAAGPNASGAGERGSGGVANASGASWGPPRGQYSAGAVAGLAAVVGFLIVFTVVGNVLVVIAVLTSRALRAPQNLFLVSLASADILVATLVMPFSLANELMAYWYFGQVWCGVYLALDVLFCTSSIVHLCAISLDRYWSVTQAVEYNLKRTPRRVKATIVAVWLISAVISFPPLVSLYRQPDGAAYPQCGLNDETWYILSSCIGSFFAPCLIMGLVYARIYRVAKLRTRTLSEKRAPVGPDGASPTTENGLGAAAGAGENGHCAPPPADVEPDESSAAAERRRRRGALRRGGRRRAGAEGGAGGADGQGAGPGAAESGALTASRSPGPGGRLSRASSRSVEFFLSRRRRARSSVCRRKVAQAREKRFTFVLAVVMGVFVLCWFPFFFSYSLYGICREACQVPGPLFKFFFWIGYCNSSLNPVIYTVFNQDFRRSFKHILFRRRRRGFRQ

## CN1C[C@H](C(=O)N[C@]2(C)O[C@@]3(O)[C@@H]4CCCN4C(=O)[C@H](Cc4ccccc4)N3C2=O)CC2c3cccc4[nH]c(C(F)(F)F)c(c34)CC21 (some centres unmarked) [2-CF3-dihydroergotamine]
[1]
  Activity (Agonism: EC50; Antagonism: IC50): Inactive
[2]
  IC50: 404 nM
[3]
  Activity (Agonism: EC50; Antagonism: IC50): Inactive
[4]
  IC50: > 10 µM
[5]
  IC50: 207 nM
[6]
  agonist activity at the 5-HT2B receptor: no agonist activity; also recorded: little agonist activity
[7]
  IC50: > 1000 nM
[8]
  Activity (Agonism: EC50; Antagonism: IC50): Inactive
[9]
  Activity (Agonism: EC50; Antagonism: IC50): Inactive
[10]
  IC50: > 10 µM
[11]
  IC50: 2780 nM
